Data on one compound can be found in US4738983A, “Ethylenediamine and guanidine-derivatives” (Degussa aktiengesellschaft, priority 1982, dated 1988).

The experiment has as its system carbachol spasm of the rat stomach. The experiment in a line: carbachol spasm of the rat stomach (stomach-spasmolytic effect). Type of experiment: in vivo. The following applies: intraduodenal, relative to Ranitidin. From the text:
The test substances are applied intraduodenally. In this model, the stomach-spasmolytic effect of the compound according to Example 1 is, for example 3.8 times greater than that of "Ranitidin".

As to `CNC(=C[N+](=O)[O-])NCCSCc1ccc(CNC2C3CC4C(C3)C42)o1` (stereo not shown) [Example 1, N-[2-[[5-(tricyclo(2.2.1.0^2.6)hept-3-yl-amino-methyl)-2-furanyl]-methylthio]-ethyl]-N'-methyl-2-nitro-1,1-ethylene-diamine], the “stomach-spasmolytic effect, times greater than that of Ranitidin” value turned out to be 3.8 times.
